Assays:
[1] = biological target: T1, wild-type androgen receptor (AR) (Homo sapiens, UniProt P10275); assay: AR binding inhibitory test (wild-type); conditions: 100 nM compound; 3 nM radiolabeled mibolerone; 4° C., 3 hr; dextran/charcoal B/F separation; read-out: Inhibitory rate (%) at 100 nM
T1 sequence (P10275 1-920): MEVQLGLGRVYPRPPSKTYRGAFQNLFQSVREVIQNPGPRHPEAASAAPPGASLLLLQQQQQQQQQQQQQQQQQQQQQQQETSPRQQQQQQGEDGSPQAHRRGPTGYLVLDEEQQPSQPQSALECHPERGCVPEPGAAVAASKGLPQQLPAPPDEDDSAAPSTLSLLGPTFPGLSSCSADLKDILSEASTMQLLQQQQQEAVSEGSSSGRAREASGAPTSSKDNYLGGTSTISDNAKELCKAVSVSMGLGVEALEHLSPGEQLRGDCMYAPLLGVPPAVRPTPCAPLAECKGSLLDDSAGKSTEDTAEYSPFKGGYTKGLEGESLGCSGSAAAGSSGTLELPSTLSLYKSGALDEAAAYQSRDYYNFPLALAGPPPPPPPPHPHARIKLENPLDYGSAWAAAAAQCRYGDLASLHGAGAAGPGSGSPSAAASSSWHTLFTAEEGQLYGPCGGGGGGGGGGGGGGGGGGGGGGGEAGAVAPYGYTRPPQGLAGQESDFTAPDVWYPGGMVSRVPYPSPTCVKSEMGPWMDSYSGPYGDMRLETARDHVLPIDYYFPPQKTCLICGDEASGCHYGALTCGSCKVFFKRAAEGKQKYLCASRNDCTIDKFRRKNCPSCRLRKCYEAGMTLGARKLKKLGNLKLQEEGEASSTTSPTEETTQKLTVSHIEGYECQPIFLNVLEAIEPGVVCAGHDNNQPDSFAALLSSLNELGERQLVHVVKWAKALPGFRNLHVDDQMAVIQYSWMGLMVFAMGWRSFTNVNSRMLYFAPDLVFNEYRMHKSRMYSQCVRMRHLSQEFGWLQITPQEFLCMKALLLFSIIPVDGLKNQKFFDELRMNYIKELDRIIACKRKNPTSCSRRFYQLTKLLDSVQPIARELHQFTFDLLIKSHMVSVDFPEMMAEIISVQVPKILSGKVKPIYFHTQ
Experimental: To a solution containing a wild-type androgen receptor (AR) was added 3 nM radiolabeled mibolerone and 100 nM compound. After the solution was incubated at 4° C. for 3 hr, B (Bound)/F (Free) separation was performed by the dextran/charcoal method. The label count of B was measured, and the inhibitory rate of the compound was calculated.

AR = biological target: T2, AR (Homo sapiens, UniProt P10275); assay: Reporter assay system using Cos7 cell (AR gene + MMTV androgen responsive promoter-luciferase); assay type: cell-based; conditions: 100 nM compound, 24 hr; Cos-7 co-transfected with AR and MMTV-luciferase vectors; luciferase activity induced by 1 μM 5α-dihydrotestosterone taken as 100
T2 construct: expressed in transfected cells; host or cells: Cos-7
T2 sequence (P10275 1-920): T1 sequence (P10275 1-920)
Experimental: Cos-7(5,000,000 cells) were sown in a flask (150 cm^2), and cultured in a culture medium (DMEM medium containing 10% Dextran Charcoal (DCC)-Fetal Bovine Serum (FBS) and 2 mM glutamine) for 24 hr. A vector DNA containing AR gene, and a vector DNA prepared by binging luciferase gene at the downstream of an androgen responsive promoter derived from MMTV (Mouse Mammary Tumor Virus) were co-transfected by the liposome method. After culture for 4 hr, the cells were harvested, 10,000 cells were plated on a 96 well plate and cultured for 2 hr, after which 1 μM of 5α-dihydrotestosterone or 100 nM of a compound was added thereto. After culture for 24 hr, luciferase activity was determined. The induction rate by the compound was determined with the luciferase activity induced by addition of 1 μM of 5α-dihydrotestosterone as 100.

In the case of `CC(C)[C@@H]1N(c2cc(F)c(C#N)c(F)c2)CC[C@]1(C)O` [Example 20, 2,6-difluoro-4-[(2S,3S)-3-hydroxy-2-isopropyl-3-methylpyrrolidin-1-yl]benzonitrile], the inhibition at 0.1 µM [1] is reported as 98% and the “Induction rate (%) at 100 nM” value (AR) is reported as 59%.
In the case of `CC[C@]1(O)CCN(c2cc(F)c(C#N)c(F)c2)[C@H]1C` [Example 7, 4-[(2S,3S)-3-ethyl-3-hydroxy-2-methylpyrrolidin-1-yl]-2,6-difluorobenzonitrile], the inhibition at 0.1 µM [1] is reported as 98% and the “Induction rate (%) at 100 nM” value (AR) is reported as 107%.
For `C[C@@H]1N(c2ccc(C#N)c(F)c2)CC[C@@]1(O)C1CC1` [Example 32, 4-[(2S,3R)-3-cyclopropyl-3-hydroxy-2-methylpyrrolidin-1-yl]-2-fluorobenzonitrile], the inhibition at 0.1 µM [1] was 98% and the “Induction rate (%) at 100 nM” value (AR) was 77%.
In the case of `C[C@@H]1C[C@](C)(O)[C@H](C)N1c1ccc(C#N)c(Cl)c1` [Example 60, 2-chloro-4-[(2S,3S,5R)-3-hydroxy-2,3,5-trimethylpyrrolidin-1-yl]benzonitrile], the inhibition at 0.1 µM [1] is reported as 92% and the “Induction rate (%) at 100 nM” value (AR) is reported as 37%.
`C[C@@H]1N(c2ccc(C#N)c(F)c2)CC[C@]1(C)O` [Example 1, 2-fluoro-4-[(2S,3S)-3-hydroxy-2,3-dimethylpyrrolidin-1-yl]benzonitrile] was tested, and the inhibition at 0.1 µM [1] was 95% and the “Induction rate (%) at 100 nM” value (AR) was 65%.
With `C[C@@H]1N(c2ccc(C#N)c(Cl)c2)CC[C@@]1(O)C(F)(F)F` [Example 18, 2-chloro-4-[(2S,3S)-3-hydroxy-2-methyl-3-(trifluoromethyl)pyrrolidin-1-yl]benzonitrile] the inhibition at 0.1 µM [1] was 100% and the “Induction rate (%) at 100 nM” value (AR) was 89%.
